# Test results as given in article PMC10123497 (RSC Advances, 2023).
# Where two headings read alike, the source gives them in different places.
# Legend:
# HCT-116 = assay: MTT in vitro cytotoxicity assay; details: for IC50: Homo sapiens, HCT-116, 24 h, read-out: In vitro cytotoxicity activity IC50 ± SD; for Selectivity index (SI): (IC50 of WI-38)/(IC50 of HCT-116)
# HepG2 = assay: MTT in vitro cytotoxicity assay; details: for IC50: Homo sapiens, HepG2, 24 h, read-out: In vitro cytotoxicity activity IC50 ± SD; for Selectivity index (SI): (IC50 of WI-38)/(IC50 of HepG2)
# [1] = MTT cytotoxicity on non-tumorigenic normal cell line; type: cell-based; details: human, WI-38 cells (non-tumorigenic normal lung fibroblasts)
# MCF-7 = assay: MTT in vitro cytotoxicity assay; details: for Selectivity index (SI): (IC50 of WI-38)/(IC50 of MCF-7); for IC50: read-out: In vitro cytotoxicity activity IC50 ± SD
# MDA-MB-231 = assay: MTT in vitro cytotoxicity assay; type: cell-based, human; details: for Selectivity index (SI): (IC50 of WI-38)/(IC50 of MDA-MB-231)
# EGFR^Wt = EGFR^Wt (Homo sapiens, UniProt P00533); assay: EGFR Kinase Assay Kit; type: biochemical
# MCF-7 cells [2] = assay: Cell cycle analysis by flow cytometry; type: cell-based, human; details: MCF-7 treated at IC50 = 3.82 μM
# MCF-7 cells [3] = assay: Annexin-V/propidium iodide apoptosis assay; type: cell-based, human
# p53 = assay: qRT-PCR gene expression in MCF-7; type: cell-based, human; details: MCF-7, vs untreated control = 1
# VEGFR2 = VEGFR2 (Homo sapiens, UniProt P35968); assay: biochemical
# EGFR^(L858R) = EGFR^(L858R) (Homo sapiens, UniProt P00533, L858R); assay: EGFR; type: biochemical
# Chain of EGFR^(L858R) (P00533 25-1210 L858R): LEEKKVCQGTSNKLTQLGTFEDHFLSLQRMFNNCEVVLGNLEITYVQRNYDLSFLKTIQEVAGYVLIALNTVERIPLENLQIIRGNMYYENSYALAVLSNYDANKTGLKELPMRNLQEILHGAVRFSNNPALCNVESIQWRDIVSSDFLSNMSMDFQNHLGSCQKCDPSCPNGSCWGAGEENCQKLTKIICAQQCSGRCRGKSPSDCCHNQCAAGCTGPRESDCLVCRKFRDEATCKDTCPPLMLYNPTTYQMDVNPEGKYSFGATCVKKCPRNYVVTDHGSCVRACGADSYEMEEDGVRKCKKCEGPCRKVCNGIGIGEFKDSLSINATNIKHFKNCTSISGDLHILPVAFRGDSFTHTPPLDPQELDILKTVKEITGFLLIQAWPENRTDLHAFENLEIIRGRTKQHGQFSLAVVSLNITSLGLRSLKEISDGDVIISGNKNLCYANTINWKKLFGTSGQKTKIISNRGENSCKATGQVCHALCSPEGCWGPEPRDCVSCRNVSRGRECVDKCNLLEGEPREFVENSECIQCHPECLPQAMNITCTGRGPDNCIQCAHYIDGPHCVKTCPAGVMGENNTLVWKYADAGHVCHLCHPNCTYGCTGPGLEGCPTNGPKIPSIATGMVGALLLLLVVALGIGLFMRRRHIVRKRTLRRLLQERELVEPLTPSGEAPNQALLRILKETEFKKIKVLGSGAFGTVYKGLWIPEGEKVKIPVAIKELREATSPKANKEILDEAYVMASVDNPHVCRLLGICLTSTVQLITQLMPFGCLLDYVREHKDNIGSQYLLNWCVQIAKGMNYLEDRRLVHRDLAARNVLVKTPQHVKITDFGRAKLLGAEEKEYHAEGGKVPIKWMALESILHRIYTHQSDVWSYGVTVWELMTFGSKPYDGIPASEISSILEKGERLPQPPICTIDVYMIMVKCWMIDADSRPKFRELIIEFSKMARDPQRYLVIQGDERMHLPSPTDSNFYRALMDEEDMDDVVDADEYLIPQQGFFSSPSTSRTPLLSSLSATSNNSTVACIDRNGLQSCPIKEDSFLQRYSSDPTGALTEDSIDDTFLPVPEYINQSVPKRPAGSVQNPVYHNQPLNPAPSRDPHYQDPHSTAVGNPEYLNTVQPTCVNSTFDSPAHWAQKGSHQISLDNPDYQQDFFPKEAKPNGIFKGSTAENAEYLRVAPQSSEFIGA
# Chain of EGFR^Wt (P00533 25-1210): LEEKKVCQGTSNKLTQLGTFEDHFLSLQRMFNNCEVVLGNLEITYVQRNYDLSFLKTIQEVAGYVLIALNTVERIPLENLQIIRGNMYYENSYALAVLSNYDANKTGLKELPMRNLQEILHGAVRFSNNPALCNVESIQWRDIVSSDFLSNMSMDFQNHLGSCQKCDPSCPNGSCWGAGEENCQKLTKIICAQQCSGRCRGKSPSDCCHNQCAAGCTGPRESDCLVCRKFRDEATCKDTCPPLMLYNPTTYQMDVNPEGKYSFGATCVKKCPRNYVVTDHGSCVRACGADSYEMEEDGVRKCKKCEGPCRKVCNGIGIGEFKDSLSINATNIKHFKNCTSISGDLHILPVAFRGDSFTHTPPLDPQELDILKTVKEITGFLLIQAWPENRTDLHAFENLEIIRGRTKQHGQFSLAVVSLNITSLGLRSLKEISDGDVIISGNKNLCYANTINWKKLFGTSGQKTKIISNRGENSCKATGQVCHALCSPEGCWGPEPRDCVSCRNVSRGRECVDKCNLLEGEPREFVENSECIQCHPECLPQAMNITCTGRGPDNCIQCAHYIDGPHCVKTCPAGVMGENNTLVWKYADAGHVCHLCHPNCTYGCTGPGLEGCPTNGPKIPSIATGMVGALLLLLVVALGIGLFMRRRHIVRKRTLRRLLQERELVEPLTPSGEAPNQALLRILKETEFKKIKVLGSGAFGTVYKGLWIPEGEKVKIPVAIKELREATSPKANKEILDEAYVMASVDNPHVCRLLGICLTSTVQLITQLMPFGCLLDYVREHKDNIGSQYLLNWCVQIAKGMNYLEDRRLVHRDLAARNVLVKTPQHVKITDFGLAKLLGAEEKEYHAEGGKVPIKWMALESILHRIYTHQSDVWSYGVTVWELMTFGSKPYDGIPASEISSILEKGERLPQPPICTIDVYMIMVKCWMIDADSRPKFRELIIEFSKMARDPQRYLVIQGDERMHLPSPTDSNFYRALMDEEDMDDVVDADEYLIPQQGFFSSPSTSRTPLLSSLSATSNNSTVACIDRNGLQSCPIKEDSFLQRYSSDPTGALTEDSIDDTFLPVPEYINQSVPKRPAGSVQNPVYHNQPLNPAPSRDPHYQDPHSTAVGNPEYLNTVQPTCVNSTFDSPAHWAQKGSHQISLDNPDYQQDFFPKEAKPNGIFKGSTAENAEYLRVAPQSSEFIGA
# Chain of VEGFR2 (P35968 20-1356): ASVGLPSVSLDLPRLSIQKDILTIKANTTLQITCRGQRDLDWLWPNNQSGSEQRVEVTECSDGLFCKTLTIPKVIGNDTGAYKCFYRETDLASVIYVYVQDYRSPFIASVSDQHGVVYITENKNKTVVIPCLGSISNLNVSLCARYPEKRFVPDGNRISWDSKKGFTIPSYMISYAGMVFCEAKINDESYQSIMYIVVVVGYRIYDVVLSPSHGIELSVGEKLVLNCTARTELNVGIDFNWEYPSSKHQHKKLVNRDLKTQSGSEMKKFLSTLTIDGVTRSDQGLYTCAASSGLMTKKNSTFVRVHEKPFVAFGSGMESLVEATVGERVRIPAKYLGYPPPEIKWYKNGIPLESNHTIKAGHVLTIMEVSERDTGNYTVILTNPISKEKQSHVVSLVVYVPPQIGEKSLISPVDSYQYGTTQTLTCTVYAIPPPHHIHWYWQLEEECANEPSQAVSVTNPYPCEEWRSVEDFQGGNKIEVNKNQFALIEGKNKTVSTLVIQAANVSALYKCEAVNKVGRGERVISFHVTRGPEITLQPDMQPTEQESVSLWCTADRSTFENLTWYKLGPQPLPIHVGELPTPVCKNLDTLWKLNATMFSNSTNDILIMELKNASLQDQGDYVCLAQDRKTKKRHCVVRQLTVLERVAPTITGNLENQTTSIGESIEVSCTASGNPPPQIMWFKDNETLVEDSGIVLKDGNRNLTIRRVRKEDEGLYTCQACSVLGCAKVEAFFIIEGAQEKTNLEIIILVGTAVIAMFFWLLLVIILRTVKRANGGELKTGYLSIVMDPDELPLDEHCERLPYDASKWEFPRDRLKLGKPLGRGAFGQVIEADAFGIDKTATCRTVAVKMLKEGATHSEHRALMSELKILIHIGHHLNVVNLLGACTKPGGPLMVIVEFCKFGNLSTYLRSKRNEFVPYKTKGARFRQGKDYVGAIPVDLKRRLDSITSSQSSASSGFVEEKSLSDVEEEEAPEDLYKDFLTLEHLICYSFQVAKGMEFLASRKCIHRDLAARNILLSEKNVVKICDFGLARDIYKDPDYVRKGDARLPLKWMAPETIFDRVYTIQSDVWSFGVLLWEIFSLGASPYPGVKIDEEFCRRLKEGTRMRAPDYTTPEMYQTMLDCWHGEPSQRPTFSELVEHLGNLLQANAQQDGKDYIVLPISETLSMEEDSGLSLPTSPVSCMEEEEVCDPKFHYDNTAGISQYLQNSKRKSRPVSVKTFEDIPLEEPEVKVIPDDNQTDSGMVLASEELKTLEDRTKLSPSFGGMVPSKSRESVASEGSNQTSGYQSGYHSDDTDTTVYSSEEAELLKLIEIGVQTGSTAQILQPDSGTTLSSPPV
compound,measurement,setting,value
"O=S(=O)(c1ccc2nc(Cl)c(Cl)nc2c1)N1CCCC1 [Compound 7, 2,3-Dichloro-6-(pyrrolidin-1-ylsulfonyl)quinoxaline]",IC50,HCT-116,38.1 ± 2.2 µM
same,IC50,HepG2,48.7 ± 2.8 µM
"N#CC(C#N)=C1Sc2nc3ccc(S(=O)(=O)N4CCCC4)cc3nc2S1 [Compound 10a, 2-(6-(Pyrrolidin-1-ylsulfonyl)-[1,3]dithiolo[4,5-b]quinoxalin-2-ylidene)malononitrile]",IC50,HCT-116,93.8 ± 4.7 µM
same,IC50,HepG2,89.7 ± 4.5 µM
"CCOC(=O)C(C#N)=C1Sc2nc3ccc(S(=O)(=O)N4CCCC4)cc3nc2S1 [Compound 10b, Ethyl 2-cyano-2-(6-(pyrrolidin-1-ylsulfonyl)-[1,3]dithiolo[4,5-b]quinoxalin-2-ylidene)acetate]",IC50,HCT-116,87.4 ± 4.2 µM
same,IC50,HepG2,80.3 ± 4.1 µM
"N#CC(C(=O)Nc1cccc(C(F)(F)F)c1)=C1Sc2nc3ccc(S(=O)(=O)N4CCCC4)cc3nc2S1 [Compound 10c, 2-Cyano-2-(6-(pyrrolidin-1-ylsulfonyl)-[1,3]dithiolo[4,5-b]quinoxalin-2-ylidene)-N-(3-(trifluoromethyl)phenyl)acetamide]",IC50 at 24 h,[1],65.1 ± 3.5 µM
same,Selectivity index (SI),HCT-116,7.01
same,IC50,HCT-116,9.26 ± 0.8 µM
same,Selectivity index (SI),MCF-7,10.61
same,IC50,"MCF-7; MCF-7, MTT, 24 h",6.13 ± 0.4 µM
same,Selectivity index (SI),HepG2,3.82
same,IC50,HepG2,17 ± 1.3 µM
same,Selectivity index (SI),MDA-MB-231,8.48
"COc1ccc(C=NNC(=O)C(C#N)=C2Sc3nc4ccc(S(=O)(=O)N5CCCC5)cc4nc3S2)cc1 [Compound 10d, 2-Cyano-N′-(4-methoxybenzylidene)-2-(6-(pyrrolidin-1-ylsulfonyl)-[1,3]dithiolo[4,5-b]quinoxalin-2-ylidene)acetohydrazide]",IC50,HCT-116,18.4 ± 1.4 µM
same,IC50,HepG2,32.1 ± 2.2 µM
"N#CC(C(=O)NN=C1C(=O)Nc2ccccc21)=C1Sc2nc3ccc(S(=O)(=O)N4CCCC4)cc3nc2S1 [Compound 10e, 2-Cyano-N′-(2-oxoindolin-3-ylidene)-2-(6-(pyrrolidin-1-ylsulfonyl)-[1,3]dithiolo[4,5-b]quinoxalin-2-ylidene)acetohydrazide]",IC50,HCT-116,22 ± 1.7 µM
same,IC50,HepG2,41.9 ± 2.5 µM
"CCOC(=O)C(C(C)=O)=C1Sc2nc3ccc(S(=O)(=O)N4CCCC4)cc3nc2S1 [Compound 10f, Ethyl 3-oxo-2-(6-(pyrrolidin-1-ylsulfonyl)-[1,3]dithiolo[4,5-b]quinoxalin-2-ylidene)butanoate]",IC50 at 24 h,[1],46.2 ± 2.4 µM
same,Selectivity index (SI),HCT-116,3.69
same,IC50,HCT-116,12.5 ± 1 µM
same,Selectivity index (SI),MCF-7,5.27
same,IC50,"MCF-7; MCF-7, MTT, 24 h",8.78 ± 0.6 µM
same,Selectivity index (SI),HepG2,1.76
same,IC50,HepG2,26.8 ± 1.9 µM
same,Selectivity index (SI),MDA-MB-231,4.41
"O=C1CCCCC1=C1Sc2nc3ccc(S(=O)(=O)N4CCCC4)cc3nc2S1 [Compound 12, 2-(6-(Pyrrolidin-1-ylsulfonyl)-[1,3]dithiolo[4,5-b]quinoxalin-2-ylidene)cyclohexan-1-one]",IC50,EGFR^Wt; Enzyme inhibitory activity IC50 EGFR^Wt,0.19 ± 0.009 µM
same,inhibition at 10 µM,EGFR^Wt; read-out: Inhibitory% EGFR^Wt,85.4%
same,IC50 at 24 h,[1],81.6 ± 4.1 µM
same,Selectivity index (SI),HCT-116,10.26
same,IC50,HCT-116,7.95 ± 0.5 µM
same,Cell cycle distribution %G2/M,MCF-7 cells [2]; untreated control 12.55,7.32%
same,Cell cycle distribution %G0-G1,MCF-7 cells [2]; untreated control 57.66,48.16%
same,Increase in early apoptosis compared to the control,MCF-7 cells [3]; MCF-7,54.59 folds
same,Increase in late apoptosis compared to the control,MCF-7 cells [3]; MCF-7,79.33 folds
same,Apoptosis Late,"MCF-7 cells [3]; MCF-7, at IC50 for 24 h, control 0.15",11.9%
same,Apoptosis Early,"MCF-7 cells [3]; MCF-7, at IC50 for 24 h, control 0.44",24.02%
same,Necrosis,"MCF-7 cells [3]; MCF-7, at IC50 for 24 h, control 1.25",6.16%
same,Apoptosis Total,"MCF-7 cells [3]; MCF-7, at IC50 for 24 h, control 1.84",42.08%
same,RT-PCR results fold change p53 (pro-apoptotic),p53,4.97 fold
same,IC50,VEGFR2; Enzyme inhibitory activity IC50 VEGFR2,0.42 ± 0.021 µM
same,inhibition at 10 µM,VEGFR2; read-out: Inhibitory% VEGFR2,78.9%
same,Selectivity index (SI),MCF-7,21.37
same,IC50,"MCF-7; Homo sapiens, MCF7, 24 h",3.82 ± 0.2 µM
same,Fold increase of potency as compared with doxorubicin,MCF-7; MCF-7,1.09 fold
same,Selectivity index (SI),HepG2,9.89
same,IC50,HepG2,8.25 ± 0.6 µM
same,IC50,EGFR^(L858R); Enzyme inhibitory activity IC50 EGFR^(L858R),0.121 ± 0.007 µM
same,inhibition at 10 µM,EGFR^(L858R); read-out: Inhibitory% EGFR^(L858R),87%
same,Selectivity index (SI),MDA-MB-231,36.12
same,Fold increase of potency as compared with doxorubicin,MDA-MB-231; MDA-MB-231,1.41 fold
"CC1=NNC(=O)C1=C1Sc2nc3ccc(S(=O)(=O)N4CCCC4)cc3nc2S1 [Compound 14, 5-Methyl-4-(6-(pyrrolidin-1-ylsulfonyl)-[1,3]dithiolo[4,5-b]quinoxalin-2-ylidene)-2,4-dihydro-3H-pyrazol-3-one]",IC50,HCT-116,71.2 ± 3.8 µM
same,IC50,HepG2,69 ± 3.9 µM
"CC1=NN(c2ccccc2)C(=O)C1=C1Sc2nc3ccc(S(=O)(=O)N4CCCC4)cc3nc2S1 [Compound 16, 5-Methyl-2-phenyl-4-(6-(pyrrolidin-1-ylsulfonyl)-[1,3]dithiolo[4,5-b]quinoxalin-2-ylidene)-2,4-dihydro-3H-pyrazol-3-one]",IC50,HCT-116,> 100 µM
same,IC50,HepG2,> 100 µM
"O=C1NC(=O)C(=C2Sc3nc4ccc(S(=O)(=O)N5CCCC5)cc4nc3S2)C(=O)N1 [Compound 18, 5-(6-(Pyrrolidin-1-ylsulfonyl)-[1,3]dithiolo[4,5-b]quinoxalin-2-ylidene)pyrimidine-2,4,6(1H,3H,5H)-trione]",IC50,HCT-116,> 100 µM
same,IC50,"MCF-7; Homo sapiens, MCF7, 24 h",62.8 ± 3.4 µM
same,IC50,HepG2,83.4 ± 4.3 µM
"COc1cccc2c1C(=O)c1c(O)c3c(c(O)c1C2=O)C[C@@](O)(C(=O)CO)C[C@@H]3O[C@H]1C[C@H](N)[C@H](O)[C@H](C)O1 [Doxorubicin, doxorubicin, reference compound]",IC50,HepG2,4.5 ± 0.2 µM
